Consider 23 molecules from patent US5914328A, “Heterocyclic ether compounds useful in controlling neurotransmitter release” (Abbott Laboratories, priority 1995, dated 1999).

Assay [1] has as its system nAChR evoked release of [3H]-dopamine. Put plainly: Striatal dopamine release ([3H]-dopamine, superfused rat striatal slices). Particulars: standard 100 nM (-)-nicotine = 1.0. It is filed as cell-based. How it is done: The protocol for this procedure follows below.
A. Protocol for Determination of Striatal Dopamine Release.
nAChR evoked release of [ring-2,5,6-^3 H]-dopamine (24.4 Ci/mmol) was measured in superfused rat striatal slices. Striata were dissected from two male Sprague-Dawley rats per experiment and sliced 0.35×0.25 mm by a McIlwain Tissue Chopper (Brinkman Instrument Co., Westbury, N.Y.). After two washes with Krebs-HEPES buffer (137 mM NaCl, 4.7 mM KCl, 1 mM MgSO4, 2.5 mM CaCl2, 1.25 mM NaH2 PO4, 10 mM glucose, 15 mM HEPES-NaOH, pH 7.4, containing 10 μM pargyline and 10 μM ascorbic acid), slices were preincubated for 10 minutes at […] under 95%/5% O2 /CO2. After replacing the buffer, slices were labeled with […] [^3 H]-dopamine for 25 min in Krebs-HEPES at […] Aliquots of slices were placed in 18 superfusion chambers of a Brandel SP2000 superfusion apparatus (Brandel, Gaithersberg, Md.). Following 47 minutes of washout, slices were exposed to agonist at various concentrations for4 minutes. Antagonists or inhibitors, when present were introduced 4 minutes prior to and during agonist exposure. Collected fractions were counted in 5 mL of Ecolume. Tissue was recovered from superfusion chambers, solubilized with 1 mL of Solvable™ (DuPont-NEN) and counted in 15 mL of Ecolume. Fractional release of [^3 H]-dopamine was calculated from radioactivity above baseline as a fraction of total radioactivity.

In assay [2] the target is neuronal nicotinic cholinergic channel receptor. Kind of assay: Binding of [3H]-cytisine to neuronal nicotinic receptors, whole rat brain synaptic membranes. As to the method:
B. Protocol For Determination of Nicotinic Cholinergic Channel Receptor Binding Potencies of Ligands
Binding of [^3 H]-cytisine ([^3 H]-CYT) to nicotinic receptors was accomplished using crude synaptic membrane preparations from whole rat brain (Pabreza et al., Molecular Pharmacol., 1990, 39:9). Washed membranes were stored at -80° C. prior to use. Frozen aliquots were slowly thawed and resuspended in 20 volumes of buffer (containing: 120 mM NaCl, 5 mM KCl, 2 mM MgCl2, 2 mM CaCl2 and 50 mM Tris-Cl, pH 7.4 @4° C.). After centrifuging at 20,000×g for 15 minutes, the pellets were resuspended in 30 volumes of buffer. Homogenate (containing […]) was added to triplicate tubes containing concentrations of test compound and [^3 H]-CYT (1.25 nM) in a final volume of 500 μL. Samples were incubated for 60 minutes at 4° C., then rapidly filtered through Whatman GF/B filters presoaked in 0.5% polyethylimine using 3×4 mL of ice-cold buffer. The filters are counted in 4 mL of Ecolume® (ICN). […] Alternately, data were expressed as a percentage of the total specific binding.

Assay [3] concerns cholinergic ligand-gated channels. Kind of assay: Cholinergic channel activation in PC12 cells, whole-cell patch-clamp. The conditions noted are these: whole-cell patch-clamp current. Format: cell-based. The source says:
D. Protocols for the Determination of Cholinergic Channel Activation in PC12 Cells.
The cholinergic channel activator properties of Example 9 were investigated in PC12 cells using the whole-cell patch-clamp approach to measure current flow through ligand-gated membrane channels.

[4] abbreviates: example concentration 10 μM (*).
[5] abbreviates: read-out: Receptor Binding Ki (Table 1).
Setting [6] is: example concentration 0.1 μ (***).
[7] abbreviates: read-out: Receptor Binding Ki (Table 2).
Where [8] appears, read: example concentration 1 μM (**).

Where a name gives a salt, the structure may show the parent alone. Read-outs that look alike come from different tables or passages of the source.

Consider `CN1CC[C@H]1COc1cnccn1.Cl.Cl` [Example 8, 2-((1-methyl-2-(S)-azetidinyl)methoxy)pyrazine dihydrochloride], for which the “Dopamine Release relative to Nicotine” value in assay [1] (setting [4]) was 0.55. For `Cc1ccc(OCC2CCCN2)cn1` (stereo not shown) [Example 37, 6methyl-3-(2-(R-pyrrolidinylmethoxy)pyridinedihydrochloride], in assay [1] (setting [4]), the “Dopamine Release relative to Nicotine” value amounted to 0.8. Further, the Ki in assay [2] (setting [5]) turned out to be 0.5 nM. Regarding `Cc1ccc(OC[C@@H]2CCCN2C)cn1.Cl.Cl` [Example 19, 6methyl-3-((1-methyl-2-(S)-pyrrolidinyl)methoxy)pyridine dihydrochloride], the “Dopamine Release relative to Nicotine” value in assay [1] (setting [6]) is 0.78. For the same molecule, the Ki in assay [2] (setting [5]) is 1.47 nM.

As for `CN1CCC[C@@H]1COc1cccnc1.Cl` [Example 1, 3-((1-methyl-2-(R)-pyrrolidinyl)methoxy)pyridine hydrochloride], the “Dopamine Release relative to Nicotine” value in assay [1] (setting [4]) is 0.08. Regarding `Cc1ccc(OC[C@@H]2CCCN2)cn1.Cl.Cl` [Example 18, 6-methyl-3-(2-(S)-pyrrolidinylmethoxy)pyridine dihydrochloride], in assay [1] (setting [6]), the “Dopamine Release relative to Nicotine” value is 1.0.

Turning to `Cl.Cl.c1cncc(OC[C@@H]2CCN2)c1` [Example 9, 3-(2-(S)-azetidinylmethoxy)pyridine dihydrochloride], in assay [3], the “cholinergic channel activator properties (in words)” value was “clear agonist activity”. Also, the “Dopamine Release relative to Nicotine” value in assay [1] (setting [4]) worked out at 1.0. Consider `CC(Oc1cccnc1)[C@@H]1CCCN1C` (stereo partly drawn) [Example 6, 3-(a-methyl-(1-methyl-2-(S)-pyrrolidinyl)methoxy)pyridine hydrochloride], for which, in assay [2] (setting [7]), the Ki is 6.7 nM. As to `Clc1ccc(OC[C@@H]2CCN2)cn1` [Example 52, 3-(2-(S)-azetidinylmethoxy)-6-chloropyridine dihydrochloride], the “Dopamine Release relative to Nicotine” value in assay [1] (setting [4]) came out at 1.0. Turning to `C[C@@H]1C[C@@H](COc2cccnc2)N(C)C1` [Example 24, 3-((trans-1,4dimethyl-2(S)-pyrrolidinone)methoxy)pyridine dihydrochloride], the Ki in assay [2] (setting [7]) stood at 4.2 nM. With `c1cncc(OC[C@@H]2CCCN2)c1` [Example 14, 3-(2-(S)-pyrrolidinylmethoxypyridine fumarate], the “Dopamine Release relative to Nicotine” value in assay [1] (setting [8]) amounted to 1.0. In addition, the Ki in assay [2] (setting [5]) stood at 0.14 nM. For the molecule `CN1CCC[C@H]1CCOc1cccnc1.Cl.Cl` [Example 103, 3-(2-(1-methyl-2-(S)-pyrrolidinyl)ethoxy)pyridine dihydrochloride], the “Dopamine Release relative to Nicotine” value in assay [1] (setting [4]) is 0.3.

Take `CCN1CCC[C@H]1COc1cccnc1.Cl.Cl` [Example 38, 3-((1-ethyl-2(S)-pyrrolidinyl)methoxy)pyridine dihydrochloride]: in assay [1] (setting [4]), the “Dopamine Release relative to Nicotine” value is 0.6. Consider `CN1CCC[C@H]1COc1cccnc1.O=C(O)/C=C/C(=O)O` [Example 4, 3-((1-methyl-2-(S)-pyrrolidinyl)methoxy)pyridine fumarate], for which the “Dopamine Release relative to Nicotine” value in assay [1] (setting [4]) turned out to be 1.0. For `Cc1ccncc1OC[C@@H]1CCCN1C.Cl.Cl` [Example 46, 4-methyl-3-((1-methyl-2-(S)-pyrrolidinyl)methoxy)pyridine dihydrochloride], the “Dopamine Release relative to Nicotine” value in assay [1] (setting [4]) came to 0.85. As to `c1cnc(OC[C@@H]2CCN2)cn1` [Example 7], the Ki in assay [2] ([3H]-cytisine 1.25 nM, rat brain membranes, 4° C., Table 2, read-out: Receptor Binding Ki (Table 2)) worked out at 0.44 nM. Turning to `CN1CCC[C@H]1COc1cncc(Cl)c1` [Example 16, 5chloro-3-((1-methyl-2-(S)-pyrrolidinyl)methoxypyridinedihydrochloride], the “Dopamine Release relative to Nicotine” value in assay [1] (setting [8]) stood at 1.0. Consider `Cc1ccc(OC[C@H]2CCCN2C)cn1` [Example 36, 6-methyl-3-((1-methyl-2-(R)-pyrrolidinyl)methoxy)pyridine dihydrochloride], for which, in assay [2] (setting [7]), the inhibitory constant (Ki) was 26 nM. Turning to `CN1CCC[C@H]1COc1cnc2ccccc2c1.Cl` [Example 31, 3-(1-methyl-2-(S)-pyrrolidinylmethoxy)quinoline hydrochloride], the “Dopamine Release relative to Nicotine” value in assay [1] (setting [4]) was determined as 0.15.

As to `CN1CC[C@H]1COc1cccnc1` [Example 10, 3-((1-methyl-2-(S)-azetidinyl)methoxypyridinedihydrochloride], the “Dopamine Release relative to Nicotine” value in assay [1] (setting [4]) worked out at 1.0. The Ki in assay [2] (setting [5]) came out at 0.25 nM. For `Cc1ccc(OC[C@@H]2CCN2C)cn1.Cl.Cl` [Example 59, 3-((1-methyl-2-(S)-azetidinyl)methoxy)-6-methylpyridine dihydrochloride], in assay [1] (setting [4]), the “Dopamine Release relative to Nicotine” value was 0.7. For `Cl.Cl.Clc1cncc(OC[C@H]2CCCN2)c1` [Example 33, 5-chloro-3-(2-(R)-pyrrolidinylmethoxy)pyridine dihydrochloride], in assay [1] (setting [8]), the “Dopamine Release relative to Nicotine” value is 0.62. As for `CN1CCCCC1COc1cccnc1` (stereo not shown) [Example 26, 3-((1-methyl-2-piperidinyl)methoxy)pyridine oxalate salt], in assay [2] (setting [7]), the Ki was 76 nM. Turning to `Cc1ncccc1OC[C@@H]1CCN1` [Example 29, 2-methyl-3-(2-(S)-azetidinylmethoxy)pyridine dihydrochloride], the inhibition constant (Ki) in assay [2] (setting [7]) turned out to be 1.3 nM.
